Laboratory results from patent publication US6949543B2, “Amide derivative” (Yamanouchi Pharmaceutical Co., Ltd., priority 2000, dated 2005).

System: VZV (strain CaQu)
Assay: Anti-VZV activity assay (plaque reduction in HEF cells)
Format: cell-based, varicella zoster virus
Conditions: Human alphaherpesvirus 3, 3 to 4 days culture, plaque count, read-out: EC50 (concentration to inhibit 50% of the plaques)
Protocol: This assay was carried out in accordance with the method described by Shigeta S. (The Journal of Infectious Diseases, 147, 3, 576-584 (1983). Illustratively, HEF cells were seeded a 96 well microtiter plate at 10,000 cells per well using a propagation medium and cultured at 37° C. for 4 days in an atmosphere of 5% CO2 until monolayers were formed. After washing the cells with a maintaining medium, the cells were inoculated with 100 μl/well of VZV (strain CaQu) which had been diluted to 20 to 30 pfu/100 μl with the maintaining medium. The plate was centrifuged at 2,000 rpm for 20 minutes at room temperature and then incubated at 37° C. for 3 hours in an atmosphere of 5% CO2 to infect with VZV. After washing three times with 100 μl/well of the maintaining medium, 100 μl of each test drug diluted to an appropriate concentration with the maintaining medium was added to each well. After culturing the cells at 37° C. for 3 to 4 days in an atmosphere of 5% CO2, the cells were fixed with 100 μl/well of 10% formalin/PBS for 2 to 3 hours. After discarding the fixing solution and culture supernatant and subsequently washing the plate with water, a staining solution (0.025% Crystal Violet) was added in 50 μl/well to carry out 2 to 3 minutes for staining, and then the plate was washed with water and dried at 37° C. The HEF cells infected with VZV cause cell death, and plaques comprising dead cells are formed in the monolayer HEF cells. The number of plaques was counted under a microscope, and EC50 value of the test drug was calculated as a concentration to inhibit 50% of the plaques.

## Nc1nc(-c2ccc(NC(=O)CN(C(=O)c3ccncn3)c3ccc4scnc4c3)cc2)cs1 [Example 118]
  EC50: 59 nM

## Nc1nc(-c2ccc(NC(=O)CN(C(=O)C3CC=C(F)CC3)c3ccc4scnc4c3)cc2)cs1 (stereo not shown) [Example 115]
  EC50: 28 nM

## Nc1nc2c(ncn2COCCO)c(=O)[nH]1 [ACV, Acyclovir, reference compound]
  EC50: 4300 nM

## Nc1nc(-c2ccc(NC(=O)CN(C(=O)C3CCSCC3)c3ccc4scnc4c3)cc2)cs1 [Example 111]
  EC50: 26 nM

## Nc1nc(-c2ccc(NC(=O)CN(C(=O)C3CCCCC3)c3ccc4ncsc4c3)cc2)cs1 [Example 114]
  EC50: 70 nM

## Nc1nc(-c2ccc(NC(=O)CN(C(=O)C3CCC(F)(F)CC3)c3ccc4scnc4c3)cc2)cs1 [Example 116]
  EC50: 33 nM

## Nc1nc(-c2ccc(NC(=O)CN(C(=O)C3CCOCC3)c3ccc4scnc4c3)cc2)cs1 [Example 110]
  EC50: 49 nM

## Nc1nc(-c2ccc(NC(=O)CN(C(=O)C3CCSc4ccccc43)c3ccc4scnc4c3)cc2)cs1 (stereo not shown) [Example 113]
  EC50: 40 nM

## Nc1nc(-c2ccc(NC(=O)CN(C(=O)c3ccncc3)c3ccc4scnc4c3)cc2)cs1 [Example 108]
  EC50: 25 nM

## Nc1nc(-c2ccc(NC(=O)CN(C(=O)c3ccc(F)nc3)c3ccc4scnc4c3)cc2)cs1 [Example 117]
  EC50: 65 nM
